Results on 6 molecules are retold here after EP0402259A1, “Anthracyclines, process for their preparation and medicaments containing them” (LABORATOIRES HOECHST S.A., priority 1989, dated 1990).

Converted amounts (≈) assume the structure as drawn.

One test has as its system LXF. Put plainly: Xenograft (subrenal capsule assay), LXF lung tumour. The test is classed as in vivo. The settings on record: for Xénogreffes LXF: grades not defined.
The next test concerns cellules tumorales L1210. Put plainly: Proliferation test (MTT reduction), L1210. The test is classed as cell-based. The settings on record: L1210, 72 h incubation; for IC50: Mus musculus, L1210, 72 h, read-out: CI50 TEST AU MTT L1210. As for the experimental part:
(§1) Les témoins consistent en cellules tumorales exposées à un milieu de culture. Quatre puits sont préparés pour chaque concentration en anthracycline et pour le témoin. Après 65 heures. 50 µl de MTT (2,5 mg/ml dans du PBS) sont ajoutés.
(§2) Le MTT sera réduit en présence de cellules vivantes en un colorant formazan rouge insoluble. Après 7 à 24 heures d'incubation supplémentaire (dépendant des cellules utilisées), le surnageant est enlevé. Le colorant formazan est solubilisé par l'addition de 100 ul de DMSO dans chaque puits, suivie d'une agitation douce.
(§3) L'extinction est mesurée pour chaque puits, à 492 nm (photomètre Multiscan 340 CC Fa. Flow).
(§4) Les résultats sont exprimés comme le rapport de l'extinction après incubation avec les anthracyclines sur l'extinction obtenue avec les témoins.

The next test concerns cellules tumorales A549. Put plainly: Proliferation test (MTT reduction), A549. The class given is cell-based. The settings on record: A 549, 72 h incubation; for IC50: Homo sapiens, A549, 72 h, read-out: CI50 TEST AU MTT A 549. As for the experimental part:
as §1, §2, §3, §4
Background: Tetrazolium dyes change colour on reduction, which living cells bring about.

For a further test, the system named is HT29. Put plainly: Xenograft (subrenal capsule assay), HT29 colon tumour. The test is classed as in vivo.
The subject of the next test is A549. Put plainly: Xenograft (subrenal capsule assay), A549. The class given is in vivo.
The test system of the next test is cellules tumorales HT29. Put plainly: Proliferation test (MTT reduction), HT29. The test is classed as cell-based. The settings on record: HT 29, 72 h incubation; for IC50: Homo sapiens, HT-29, 72 h, read-out: CI50 TEST AU MTT HT 29. As for the experimental part: as §1, §2, §3, §4
The test system of a further test is L1210. Put plainly: In vivo L1210 leukemia, survival time (T/C). Also on record: species or system souris BDF1. The procedure: Un liquide d'ascite est prélevé dans des conditions aseptiques chez des souris DBA2 (femelle, 18 -20 g) le septième jours après l'implantation.
L'ascite est lavée trois fois avec du PBS, comptée et finalement diluée dans du PBS, de manière à obtenir 10^6 cellules/0,2 ml.
10^6 cellules dans 0,2 ml de PBS sont injectées dans le peritoine de souris DBA2 pour la propagation de la lignée cellulaire.
10^6 cellules dans 0,2 ml de PBS sont injectés intrapéritonéalement à des souris BDF1 (femelle 18 -20 g), 6 animauxigroupe sont utilisés pour chaque concentration de substance et pour le contrôle.
• a) les animaux sont pesés le premier jour et le cinquième jour après l'administration du médicament.
A partir du temps de survie moyen des groupes traités (MSTT) et des groupes contrôle (MSTc), l'effet antitumoral (T/C) est évalué en fonction de la formule suivante : [formula]

Where [1] appears, read: L1210 i.p. in BDF1 mice, schedule 3 i.v.

For the molecule `C[C@@H]1O[C@@H](O[C@H]2C[C@](O)(CO)Cc3c(O)c4c(c(O)c32)C(=O)c2ccccc2C4=O)C[C@H](O)[C@@H]1N` [Composé 13, chlorhydratede (S)-cis-1-O-(4-amino-2,4,6-trideoxy-α-L-lyxo-hexopyranosyl)-1,2.3.4,6.11-hexahydro-1,3,5,12-tétrahydroxy-3-hydroxyméthyl-6,11-naphtacène dione], in the test with LXF, the “Xénogreffes LXF” value is reported as “+ +”. Besides, the “activité sur tumeur du poumon (LXF)” value in the test with LXF (in words) is “actif”. The “CI50 TEST AU MTT L1210” value in the test with cellules tumorales L1210 is listed as 0,009 µg/ml. In addition, the “CI50 TEST AU MTT A 549” value in the test with cellules tumorales A549 is 0,009 µg/ml. Besides, the “activité sur tumeur du colon (HT29)” value in the test on HT29 (in words) is “à un moindre degré”. In the test with A549 (in words), the “activité sur la lignée cellulaire A549” value was “à un moindre degré”. Besides, the “CI50 TEST AU MTT HT 29” value with cellules tumorales HT29 is listed as 0,01 µg/ml. Further, the dose optimale with L1210 (setting [1]) is recorded as 3,1 mg/kg/Inj. The same molecule showed a T/C % with L1210 (L1210 i.p. in BDF1 mice, schedule 3 i.v., at optimal dose, T/C above 125 % = significant antitumour effect) of 133%. In addition, the activité antitumorale result with L1210 (in words, at a dose about three times lower than that of doxorubicine) is “activité antitumorale non négligeable”.

As for `C[C@@H]1O[C@@H](O[C@H]2C[C@](O)(CO)Cc3c(O)c4c(c(O)c32)C(=O)c2ccccc2C4=O)C[C@H](O)[C@@H]1N=[N+]=[N-]` [compound 6], the IC50 in the test with cellules tumorales L1210 turned out to be 0.13 µg/mL (≈ 0.254 µM); in the test on cellules tumorales A549 it was 0.24 µg/mL (≈ 0.469 µM); with cellules tumorales HT29 it was 0.46 µg/mL (≈ 0.899 µM).

For `C[C@@H]1O[C@@H](O[C@H]2C[C@](O)(CO)Cc3c(O)c4c(c(O)c32)C(=O)c2ccccc2C4=O)C[C@H](O)[C@@H]1NC(=O)C(F)(F)F` [compound 11], the IC50 in the test on cellules tumorales L1210 stood at 0.015 µg/mL (≈ 0.0258 µM); in the test with cellules tumorales A549, 0.011 µg/mL (≈ 0.0189 µM); with cellules tumorales HT29 it was 0.026 µg/mL (≈ 0.0447 µM).

`C[C@@H]1O[C@@H](O[C@H]2C[C@](O)(CO)Cc3c(O)c4c(c(O)c32)C(=O)c2ccccc2C4=O)C[C@H](O)[C@@H]1N` [compound 12, (S)-cis-1-O-{4 amino-2,4,6-trideoxy-α-L-lyxo-hexopyranosyl)-1,2,3,4,6,11-hexahydro-1,3,5,12-tétrahydroxy-3-hydroxyméthyl-6,11-naphtacène dione]: the “CI50 TEST AU MTT L1210” value with cellules tumorales L1210 is recorded as 0,021 µg/ml. Also, the “CI50 TEST AU MTT A 549” value in the test on cellules tumorales A549 is 0,24 µg/ml. Further, the “CI50 TEST AU MTT HT 29” value with cellules tumorales HT29 was 0,03 µg/ml.

Consider `C[C@@H]1O[C@@H](O[C@H]2C[C@](O)(CO)Cc3c(O)c4c(c(O)c32)C(=O)c2ccccc2C4=O)C[C@H](O)[C@@H]1N1CCOCC1` [compound 14, (S)-cis-1-O-{4-morpholino-2,4,6-tridésoxy-α-L-lyxo-hexopyranosyl)-1,2,3,4,6,11-hexahydro-1,3,5,12-tétrahydroxy-3-hydroxyméthyl-6,11-naphtacène dione], for which the IC50 in the test with cellules tumorales L1210 worked out at 0.15 µg/mL (≈ 0.27 µM); in the test with cellules tumorales A549, 0.054 µg/mL (≈ 0.0972 µM); with cellules tumorales HT29, 0.13 µg/mL (≈ 0.234 µM).

For `COc1cccc2c1C(=O)c1c(O)c3c(c(O)c1C2=O)C[C@@](O)(C(=O)CO)C[C@@H]3O[C@H]1C[C@H](N)[C@H](O)[C@H](C)O1` [doxorubicine, reference compound], the “Xénogreffes LXF” value with LXF is given as “+ + +”. For the same molecule, in the test with HT29 (grades not defined), the “Xénogreffes HT29” value is reported as “+ +”. The “Xénogreffes A549” value in the test with A549 (grades not defined) is on record as “+ +”. Further, the dose optimale with L1210 (setting [1]) is reported as 8,1 mg/kg/Inj.
